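Protocol summary: plate cells (96-well), add compound at 5 concentrations, incubate 48 h, interpolate endpoints linearly. At the GI50, growth is halved.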 The source made the active and inactive calls. Rule as the data show it: active = GI50 up to about 1.1 µM and inactive = higher.
How the values were obtained:
Test in all cases: DTP human tumour cell line panel, 48 h
[1] = system: HCT-15
[2] = system: HL-60
[3] = system: UACC-257
[4] = system: MDA-N
[5] = system: HCC 2998
[6] = system: LOX IMVI
[7] = system: SF-268
[8] = system: HT-29
[9] = system: SNB-75
[10] = system: NCI-H460
[11] = system: 786-0
[12] = system: HCT-116
[13] = system: T47D
[14] = system: Hs-578T
[15] = system: MDA-MB-435
[16] = system: NCI-H226
[17] = system: BT-549
[18] = system: MCF7
[19] = system: OVCAR-3
[20] = system: SNB-78

Cc1ccc(S(=O)(=O)C2=Cc3ccc(C(F)(F)F)cc3C2(O)c2cccc(C(F)(F)F)c2)cc1 (stereo unspecified)
GI50 [1]: 1.95 µM | GI50 [2]: 1.65 µM (inactive) | GI50 [3]: 1.85 µM (inactive) | GI50 [4]: 2.38 µM (inactive) | GI50 [5]: 2.43 µM (inactive) | GI50 [6]: 1.91 µM (inactive) | GI50 [7]: 2.39 µM (inactive) | GI50 [8]: 2.19 µM (inactive) | GI50 [9]: 2.93 µM (inactive) | GI50 [10]: 2.33 µM (inactive) | GI50 [11]: 1.93 µM (inactive) | GI50 [12]: 1.58 µM (inactive) | GI50 [13]: 3.1 µM (inactive) | GI50 [14]: 3.13 µM (inactive) | GI50 [15]: 2.05 µM (inactive) | GI50 [16]: 2.15 µM (inactive) | GI50 [17]: 2.06 µM (inactive) | GI50 [18]: 2.3 µM (inactive) | GI50 [19]: 1.64 µM (inactive)

C[C@H]1C(=O)O[C@@H]2CCN3CC=C(COC(=O)[C@](C)(O)[C@@]1(C)O)[C@H]23
GI50 [1]: > 100 µM | GI50 [2]: > 100 µM (inactive) | GI50 [3]: > 100 µM (inactive) | GI50 [4]: > 100 µM (inactive) | GI50 [5]: > 100 µM (inactive) | GI50 [6]: > 100 µM (inactive) | GI50 [7]: > 100 µM (inactive) | GI50 [8]: > 100 µM (inactive) | GI50 [9]: > 100 µM (inactive) | GI50 [10]: > 10 µM (inactive) | GI50 [11]: > 100 µM (inactive) | GI50 [12]: > 100 µM (inactive) | GI50 [13]: > 100 µM (inactive) | GI50 [14]: > 100 µM (inactive) | GI50 [15]: > 100 µM (inactive) | GI50 [16]: > 100 µM (inactive) | GI50 [17]: > 100 µM (inactive) | GI50 [18]: > 100 µM (inactive) | GI50 [19]: > 100 µM (inactive)

O=C1CSC2(CC(/C=C/c3cccc([N+](=O)[O-])c3)=NN2c2cccc(S(=O)(=O)O)c2)N1c1nc2ccccc2s1 (stereo unspecified)
GI50 [1]: 18.1 µM | GI50 [2]: 28.1 µM (inactive) | GI50 [3]: 38.9 µM (inactive) | GI50 [4]: 25.1 µM (inactive) | GI50 [5]: 35.6 µM (inactive) | GI50 [6]: 13.6 µM (inactive) | GI50 [7]: 26 µM (inactive) | GI50 [8]: 31.4 µM (inactive) | GI50 [9]: 20 µM (inactive) | GI50 [10]: 21.2 µM (inactive) | GI50 [11]: 18 µM (inactive) | GI50 [12]: 32.6 µM (inactive) | GI50 [13]: 24.6 µM (inactive) | GI50 [14]: 55.3 µM (inactive) | GI50 [15]: 18.5 µM (inactive) | GI50 [16]: 25.4 µM (inactive) | GI50 [17]: 16.3 µM (inactive) | GI50 [18]: 17.6 µM (inactive)

CCCCCNC(=O)c1c(O)[nH]c(=S)[nH]c1=O
GI50 [1]: 90.6 µM | GI50 [2]: > 100 µM (inactive) | GI50 [3]: > 100 µM (inactive) | GI50 [6]: > 100 µM (inactive) | GI50 [7]: > 100 µM (inactive) | GI50 [8]: > 100 µM (inactive) | GI50 [9]: > 100 µM (inactive) | GI50 [10]: > 100 µM (inactive) | GI50 [11]: > 100 µM (inactive) | GI50 [12]: > 100 µM (inactive) | GI50 [20]: > 100 µM (inactive) | GI50 [16]: > 100 µM (inactive) | GI50 [19]: > 100 µM (inactive)

COc1ccc(-c2c(-c3ccccc3)c(C)nc3nc(SC)nc(SC)c23)cc1OC
GI50 [1]: 8.2 µM | GI50 [2]: 3.14 µM (inactive) | GI50 [3]: 21.5 µM (inactive) | GI50 [4]: 8.99 µM (inactive) | GI50 [5]: 25 µM (inactive) | GI50 [6]: 11.4 µM (inactive) | GI50 [7]: 24 µM (inactive) | GI50 [8]: 5.71 µM (inactive) | GI50 [9]: 16.1 µM (inactive) | GI50 [10]: 2.12 µM (inactive) | GI50 [12]: 6.18 µM (inactive) | GI50 [13]: 13 µM (inactive) | GI50 [14]: 5.05 µM (inactive) | GI50 [15]: 8.17 µM (inactive) | GI50 [16]: 17.3 µM (inactive) | GI50 [17]: 24.8 µM (inactive) | GI50 [18]: 10.6 µM (inactive) | GI50 [19]: 14.4 µM (inactive)

Cc1c(/C=N/NC(=O)c2ccccc2O)c(=O)n(-c2ccccc2)n1C
GI50 [1]: 29.2 µM | GI50 [2]: 28.1 µM (inactive) | GI50 [3]: > 100 µM (inactive) | GI50 [5]: > 100 µM (inactive) | GI50 [6]: 45.4 µM (inactive) | GI50 [7]: > 100 µM (inactive) | GI50 [8]: > 100 µM (inactive) | GI50 [9]: > 100 µM (inactive) | GI50 [10]: 47.1 µM (inactive) | GI50 [11]: > 100 µM (inactive) | GI50 [12]: 64.9 µM (inactive) | GI50 [20]: > 100 µM (inactive) | GI50 [16]: > 100 µM (inactive) | GI50 [19]: > 100 µM (inactive)

COC(=O)C1=COC2OC3CC1C2C(C)O3 (stereo unspecified)
GI50 [1]: > 100 µM | GI50 [2]: > 100 µM (inactive) | GI50 [3]: > 100 µM (inactive) | GI50 [4]: > 100 µM (inactive) | GI50 [5]: > 100 µM (inactive) | GI50 [6]: > 100 µM (inactive) | GI50 [7]: > 100 µM (inactive) | GI50 [8]: > 100 µM (inactive) | GI50 [10]: > 100 µM (inactive) | GI50 [11]: > 100 µM (inactive) | GI50 [12]: > 100 µM (inactive) | GI50 [13]: > 100 µM (inactive) | GI50 [14]: > 100 µM (inactive) | GI50 [15]: > 100 µM (inactive) | GI50 [16]: > 100 µM (inactive) | GI50 [17]: > 100 µM (inactive) | GI50 [18]: > 100 µM (inactive) | GI50 [19]: > 100 µM (inactive)

CC(=O)C(/N=N\C1CCC(S(=O)(=O)NB2N=CS2)CC1)C(=O)Nc1ccccc1C (stereo unspecified)
GI50 [1]: 10.5 µM | GI50 [2]: > 100 µM (inactive) | GI50 [3]: 17.9 µM (inactive) | GI50 [5]: 17.5 µM (inactive) | GI50 [7]: 14.7 µM (inactive) | GI50 [8]: 16 µM (inactive) | GI50 [9]: 17.5 µM (inactive) | GI50 [10]: 15.8 µM (inactive) | GI50 [12]: 13.5 µM (inactive) | GI50 [20]: 23.6 µM (inactive) | GI50 [16]: 14.9 µM (inactive) | GI50 [19]: 13.8 µM (inactive)

Reference: ChEMBL document CHEMBL1201862, “PubChem BioAssay data set” (2004)
